Drawing on patent US7998978B2 (Pfizer Inc., priority 2006, dated 2011), this text covers inhibition and Ki for 38 compounds.

Usually inhibition stands for the relative decrease from the control value, in per cent. What is called Ki is a measure of affinity in units of concentration, obtained from inhibition or displacement.

In the first assay the target is T1, JNK1α1 (Homo sapiens, UniProt P45983).
T1 construct: catalytic domain containing amino acids 1-364 and N-terminal hexahistidine tag; hexahistidine (His6) (N); made in house; host or cells: E. coli BL21 (DE3)
T1 sequence (P45983 1-364): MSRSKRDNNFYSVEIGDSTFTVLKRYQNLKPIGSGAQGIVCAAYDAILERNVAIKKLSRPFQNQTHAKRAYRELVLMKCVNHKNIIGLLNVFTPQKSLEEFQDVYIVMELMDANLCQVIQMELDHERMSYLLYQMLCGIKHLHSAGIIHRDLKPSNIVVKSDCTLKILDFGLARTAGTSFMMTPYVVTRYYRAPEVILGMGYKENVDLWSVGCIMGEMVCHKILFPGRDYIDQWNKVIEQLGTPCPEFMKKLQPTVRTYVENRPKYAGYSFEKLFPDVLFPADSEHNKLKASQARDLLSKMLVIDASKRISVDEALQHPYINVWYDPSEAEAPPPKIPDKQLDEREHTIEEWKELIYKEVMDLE
Kind of assay: Coupled spectrophotometric (PK/LDH) JNK1α1 assay: % inhibition and Ki determination. In kind it is biochemical. The following applies: @1 uM; read-out: % Inhibition JNK-1. The essentials:
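Initial rates were taken from the absorbance decrease at 340 nm at 30° C. Ki was fitted with a tight-binding model over 11 concentrations (top 100 μM); single-point inhibition was tested at 1 or 10 μM.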
`COCCOc1ccc2cnc(N[C@H]3CC[C@H](O)CC3)nc2c1` [Example 272, trans-4-{[7-(2-methoxyethoxy)quinazolin-2-yl]amino)cyclohexanol]: the inhibition at 1 µM was found to be 63%.

`O=C(NCCO)c1ccc2cnc(NC3CCCCC3)nc2c1` [Example 426, 2-(cyclohexylamino)-N-(2-hydroxyethyl)quinazoline-7-carboxamide]: the inhibition at 1 µM worked out at 23%. Same read-out and setting: the figure for `CC(=O)N1CCC(NC(=O)c2cccc3cnc(N[C@H]4CC[C@H](O)CC4)nc23)CC1` [Example 519, N-(1-acetylpiperidin-4-yl)-2-[(trans-4-hydroxycyclohexyl)amino]quinazoline-8-carboxamide] is 9%; for `O[C@H]1CC[C@H](Nc2ncc3ccc(OC4CCOCC4)cc3n2)CC1` [Example 268, trans-4-{[7-(tetrahydro-2H-pyran-4-yloxy)quinazolin-2-yl]amino}cyclohexanol] it is 67%; for `O[C@H]1CC[C@H](Nc2ncc3ccc(OC4CCN(c5cccnn5)CC4)cc3n2)CC1` [Example 293, trans-4-({7-[(1-pyridazin 3-ylpiperidin-4-yl)oxy]quinazolin-2-yl}amino)cyclohexanol] it is 52%.

Still in this assay, the particulars now being: @10 uM; read-out: % Inhibition JNK-1.
With `CCN1CCC(Oc2cccc3cnc(N[C@H]4CC[C@H](O)CC4)nc23)C1` (stereo partly drawn) [Example 259, trans-4-({8-[(1-ethylpyrrolidin-3-yl)oxy]quinazolin-2-yl}amino)cyclohexanol], the inhibition at 10 µM turned out to be 65%. With `CCc1cc(CNC(=O)c2cccc3cnc(N[C@H]4CC[C@H](O)CC4)nc23)on1` [Example 484, N-[(3-ethylisoxazol-5-yl)methyl]-2-[(trans-4-hydroxycyclohexyl)amino]quinazoline-8-carboxamide], the inhibition at 10 µM is 57%. On the same count and under the same terms, for `CC(C)c1noc(CNC(=O)c2cccc3cnc(N[C@H]4CC[C@H](O)CC4)nc23)n1` [Example 500, 2-[(trans-4-hydroxycyclohexyl)amino]-N-[(3-isopropyl-1,2,4-oxadiazol-5-yl)methyl]quinazoline-8-carboxamide] the value was 38%; for `Cc1cc(C)n(CC(C)NC(=O)c2cccc3cnc(N[C@H]4CC[C@H](O)CC4)nc23)n1` (stereo partly drawn) [Example 483, N-[2-(3,5-dimethyl-1H-pyrazol-1-yl)-1-methylethyl]-2-[(trans-4-hydroxycyclohexyl)amino]quinazoline-8-carboxamide], 71%. Turning to `CN1CCC(Oc2cccc3cnc(N[C@H]4CC[C@H](O)CC4)nc23)C1` (stereo partly drawn) [Example 262, trans-4-({8-[(1-methylpyrrolidin-3-yl)oxy]quinazolin-2-yl}amino)cyclohexanol], the inhibition at 10 µM worked out at 61%.

The same assay, now with this note: JNK-1.
Compound `CC[C@@H](NC(=O)c1ccc2cnc(N[C@H]3CC[C@H](O)CC3)nc2c1)c1ccccc1` [Example 93, 2-[(trans-4-hydroxycyclohexyl)amino]-N-[(1R)-1-phenylpropyl]quinazoline-7-carboxamide] had a Ki of 31 nM.

Compound `CC(O)CNC(=O)c1ccc2cnc(N[C@H]3CC[C@H](O)CC3)nc2c1` (stereo partly drawn) [Example 351, 2-[(trans-4-hydroxycyclohexyl)amino]-N-(2-hydroxypropyl)quinazoline-7-carboxamide] gave an inhibition constant (Ki) of 1060 nM. Compound `COc1cccc2cnc(NC3CCCCC3)nc12` [Example 149] returned an inhibition constant (Ki) of 485 nM. Same read-out and setting: the figure for `O=C(NC1CCS(=O)(=O)C1)c1ccc2cnc(N[C@H]3CC[C@H](O)CC3)nc2c1` (stereo partly drawn) [Example 344, N-(1,1-dioxidotetrahydro-3-thienyl)-2-[(trans-4-hydroxycyclohexyl)amino]quinazoline-7-7-carboxamide] is 869 nM; for `CC(=O)N[C@H]1CC[C@H](Nc2ncc3ccc(OC4CCOC4)cc3n2)CC1` (stereo partly drawn) [Example 164, N-(trans-4-{[7-(tetrahydrofuran-3-yloxy)quinazolin-2-yl]amino}cyclohexyl)acetamide] it is 416 nM; for `O=C(NC1(c2ccncc2)CC1)c1cccc2cnc(N[C@H]3CC[C@H](O)CC3)nc12` [Example 455, 2-[(trans-4-hydroxycyclohexyl)amino]-N-(1-pyridin-4-ylcyclopropyl)quinazoline-8-carboxamide] it is 235 nM.

`Cc1ccc2cnc(N[C@H]3CC[C@H](O)CC3)nc2c1OCC(=O)NC1CCOCC1` [Example 210, 2-({2-[(trans-4-hydroxycyclohexyl)amino]-7-methylquinazolin-8-yl}oxy)-N-(tetrahydro-2H-pyran-4-yl)acetamide]: the Ki was found to be 1710 nM. Take `O=C(Nc1ccccn1)c1cccc2cnc(N[C@H]3CC[C@H](O)CC3)nc12` [Example 110, 2-[(trans-4-hydroxycyclohexyl)amino]-N-pyridin-2-ylquinazoline-8-carboxamide]: the Ki stood at 86 nM. Still for that read-out and setting: the figure for `CC[C@H](C)[C@@H](CO)NC(=O)c1ccc2cnc(NC3CCCC3)nc2c1` [Example 396] is 424 nM.

`O=C(NCC1CCCCO1)c1ccc2cnc(N[C@H]3CC[C@H](O)CC3)nc2c1` (stereo partly drawn) [Example 348, 2-[(trans-4-hydroxycyclohexyl)amino]-N-(tetrahydro-2H-pyran-2-ylmethyl)quinazoline-7-carboxamide] returned a Ki of 978 nM. `Cn1cncc1CNC(=O)c1cccc2cnc(N[C@H]3CC[C@H](O)CC3)nc12` [Example 465, 2-[(trans-4-hydroxycyclohexyl)amino]-N-[(1-methyl-1H-imidazol-5-yl)methyl]quinazoline-8-carboxamide]: the Ki is 782 nM. Still for that read-out and setting: the figure for `O=C(CNC(=O)C1(c2ccccc2)CC1)Nc1cc2cc(-c3cn[nH]c3)ccc2cn1` [Example 35, N-(2-oxo-2-{[6-(1H-pyrazol-4-yl)isoquinolin-3-yl]amino)ethyl)-1-phenylcyclopropanecarboxamide] is 8 nM; for `O[C@H]1CC[C@H](Nc2ncc3cccc(OC4CCC(F)(F)CC4)c3n2)CC1` [Example 239, trans-4-({8-[(4,4-difluorocyclohexyl)oxy]quinazolin-2-yl}amino)cyclohexanol] it is 67 nM; for `O=C(N[C@H](CO)Cc1ccccc1)c1ccc2cnc(NC3CCCCC3)nc2c1` [Example 395, N-[(1S)-1-benzyl-2-hydroxyethyl]-2-(cyclohexylamino)quinazoline-7-carboxamide] it is 422 nM.

As to `O[C@H]1CC[C@H](Nc2ncc3cccc(OC4CCN(c5ccncn5)CC4)c3n2)CC1` [Example 247, trans-4-({8-[(1-pyrimidin-4-ylpiperidin-4-yl)oxy]quinazolin-2-yl}amino)cyclohexanol], the affinity, expressed as Ki, was 274 nM. Regarding `O=C(N[C@H](CO)c1ccccc1)c1ccc2cnc(N[C@H]3CC[C@H](O)CC3)nc2c1` [Example 372, 2-[(trans-4-hydroxycyclohexyl)amino]-N-[(1S)-2-hydroxy-1-phenylethyl]quinazoline-7-carboxamide], affinity was put at a Ki of 73.5 nM. Same read-out and setting: the figure for `CC(C)N[C@H]1CC[C@H](Nc2ncc3cccc(OC4CCOC4)c3n2)CC1` (stereo partly drawn) [Example 193, trans-N-isopropyl-N′-[8-(tetrahydrofuran-3-yloxy)quinazolin-2-yl]cyclohexane-1,4-diamine] is 1410 nM; for `CCCNC(=O)c1cccc2cnc(N[C@H]3CC[C@H](O)CC3)nc12` [Example 461, 2-[(trans-4-hydroxycyclohexyl)amino]-N-propylquinazoline-8-carboxamide] it is 451 nM. The compound `O=C(N[C@H]1CC[C@H](O)CC1)c1ccc2cnc(N[C@H]3CC[C@H](O)CC3)nc2c1` [Example 328, N-(trans-4-hydroxycyclohexyl)2[(trans-4-hydroxycyclohexyl)amino]quinazoline-7-carboxamide] gave a Ki of 257 nM. The same measure, in the same setting: for `COc1ccc2c(c1OC)CC[C@@H]2C(=O)Nc1cc2cc(-c3cn[nH]c3)ccc2cn1` [Example 22, (S)-4,5-dimethoxy-N-[6-(1H-pyrazol-4-yl)isoquinolin-3-yl]indane-1-carboxamide] the value was more than 50 nM; for `Cc1cnc(C(=O)NCC(=O)Nc2cc3cc(-c4cn[nH]c4)ccc3cn2)cn1` [Example 43, 5-methyl-N-(2-oxo-2-{[6-(1H-pyrazol-4-yl)isoquinolin-3-yl]amino}ethyl)pyrazine-2-carboxamide], 8 nM; for `CCC(=O)N[C@H]1CC[C@H](Nc2ncc3cccc(OC4CCOCC4)c3n2)CC1` [Example 180, N-(trans-4-{[8-(tetrahydro-2H-pyran-4-yloxy)quinazolin-2-yl]amino}cyclohexyl)propanamide], 570 nM. Same read-out and setting: the figure for `O=C(NC1CCN(c2cccnn2)CC1)c1cccc2cnc(N[C@H]3CC[C@H](O)CC3)nc12` [Example 449, 2-[(trans-4-hydroxycyclohexyl)amino]-N-(1-pyridazin-3-ylpiperidin-4-yl)quinazoline-8-carboxamide] is 138 nM; for `O[C@H]1CC[C@H](Nc2ncc3cccc(-c4ccccc4)c3n2)CC1` [Example 205, trans-4-[(8-phenylquinazolin-2-yl)amino] cyclohexanol] it is 29 nM; for `O=C(CNC(=O)c1ccc(O)c(Cl)c1)Nc1cc2cc(-c3cn[nH]c3)ccc2cn1` [Example 56, 3-chloro-4-hydroxy-N-(2-oxo-2-{[6-(1H-pyrazol-4-yl)isoquinolin-3-yl]amino}ethyl)benzamide] it is 17 nM. Still for that read-out and setting: for `CN([C@H]1CC[C@H](Nc2ncc3cccc(C(=O)N[C@@H]4CCC[C@H]4O)c3n2)CC1)S(C)(=O)=O` (relative stereo) [Example 142, N-[(trans)-2-hydroxycyclopentyl]-2-({trans-4-[methyl(methylsulfonyl)amino]cyclohexyl}amino)quinazoline-8-carboxamide] the value was 226 nM.

For the compound `O=C(c1cccc2cnc(N[C@H]3CC[C@H](O)CC3)nc12)N1CCC(O)C1` (stereo partly drawn) [Example 112, 1-({2-[(trans-4-hydroxycyclohexyl)amino]quinazolin-8-yl}carbonyl)pyrrolidin-3-ol], the inhibition constant Ki is more than 10000 nM. `N#Cc1cc(CNc2cc3cc(-c4cn[nH]c4)ccc3cn2)ccc1F` [Example 226, 2-fiuoro-5-({[6-(1H-pyrazol-4-yl)isoquinolin-3-yl]amino}methyl)benzonitrile] showed an inhibitory constant (Ki) of 5270 nM.
